# Key:
# [1] = tested on: differentiating definitive endoderm (DE) cell cultures; test: 96-well plate impedance assay (ACEA) on differentiating definitive endoderm at lowest effective dose; assay type: cell-based, human; parameters: key: Viable: Compounds that did not appear to be cytotoxic toward differentiating DE cultures were marked as “viable”, meaning that the compound did not affect the survival, growth, proliferation or differentiation of the differentiated cells; conditions: at the lowest effective dose on either hESC or NPC
# Excerpt: The impedance assay on the hESCs using the compounds in Table 4 above gave greater than twenty (20) hits. However, the ideal candidate compound of the present invention should not only be inhibitory or cytotoxic to human pluripotent stem cells, such as hESCs or hIPSCs, but should at the same time have no effect on cell viability of differentiated or differentiating cell populations including Stage 1, 2, 3, 4 and 5 type cells cultures (definitive endoderm, foregut endoderm, posterior foregut, pancreatic endoderm and endocrine cells, respectively). […] Approximately 3×10^4 hES cells were plated per well and grown for 24 hrs in DC-HAIF defined medium (i.e. StemPro® hESC SFM medium (Life Technologies, Carlsbad, Calif.). Stage 1 or definitive endoderm differentiation was then induced by changing the medium and culturing in RPMI, 100 ng/mL Activin A, and 10 ng/mL of FGF2. […] of GSK-3 beta Inhibitor 15 (Calbiochem #361558) as added to the culture for the first 24 hours of differentiation only. 10 μM of each of the candidate compounds were added about 48 hours or 2 days after differentiation was induced (see FIGS. 3 C & D, large arrowhead), and the cells were cultured for an additional 2 days.
# Using a range of different concentrations from 0.1 to 50 μM, the forty compounds in Table 6 were re-screened (secondary screen) using hESCS and NPCs. The effective dose (ED) was defined as the lowest concentration of a compound that elicited cytotoxicity during the secondary screen. […] The darker wells were indicative of the increased numbers or percentages of proliferating or growing pluripotent stem cells in the wells. In addition, these 40 compounds were screened on differentiating definitive endoderm (DE) cell cultures in 96-well plate impedance assays (described above) to determine which of these compounds were not cytotoxic to definitive endoderm cells at the lowest effective dose on either hESC or NPC. […] See “ACEA DE” column in Table 6.
# [2] = tested on: hESC suspension aggregate cultures, Stages 1-4 (pancreatic endoderm); test: Q-PCR marker gene expression, suspension aggregate cultures differentiated through Stages 1-4; assay type: cell-based, human; conditions: for PDX1 and NKX6.1 gene expression: Stages 2, 3 and 4, compared to the Controls
# Excerpt: FIGS. 5A-5M. are bar graphs showing the relative gene expression levels of markers expressed in pluripotent cells or in cells of pancreatic lineage: OCT4 (FIG. 5A), MIXL (FIG. 5B), EOMES (FIG. 5C), CXCR4 (FIG. 5D), SOX17 (FIG. 5E), HNF1B (FIG. 5F), HNF4A (FIG. 5G), PDX1 (FIG. 5H), PTF1A (FIG. 5I), NKX2.2. (FIG. 5J), NGN3 (FIG. 5K), NKX6.1 (FIG. 5L) and PAX4 (FIG. 5M) with treatment of candidate selective cytotoxic agents from the LOPAC1280™ sublibrary (Table 4) to suspension aggregate cell cultures at Stages 1-4. Expression levels are normalized to the average expression levels of housekeeping genes. The graphs depict fold regulation compared to hESC sample. Ch.Cl=chelerythrine chloride; Deph.=dephostatin; AG=AG 490; SU=SU6656.
# FIGS. 6A-6F are bar graphs showing the relative gene expression levels of markers of non-pancreatic lineage cells: SOX1 (FIG. 6A; e.g., at least observed in extraembryonic and neural cellss), ZIC1 (FIG. 6B; e.g., at least observed in early neural cells), PAX6 (FIG. 6C; e.g., at least observed in neural ectoderm cells), SOX7 (FIG. 6D; e.g., at least observed in extraembryonic cells), AFP (FIG. 6E; e.g., at least observed in liver cell and extraembryonic cells) and CDX2 (FIG. 6F; e.g., at least observed in extraembryonic cells) in compound-treated differentiations.
# Effects of Candidate Inhibitor/Cytotoxic Agents in Suspension Aggregate Culture. The ideal inhibitor candidate for cell therapy would be compatible with pancreatic cell lineage viability in a manufacturing scale-up process (e.g. a suspension aggregate culture that could be propagated in a large bioreactor), as well as in small-scale cell culture, such as in 96-well plates or 6-well trays. Thus, an additional screen included conditions similar to those in a commercial-scale process. […] The remaining 4 compounds, chelerythrine chloride (Ch.Cl; Cmpd. No. 25), tyrphostin AG 490 (AG; Cmpd. No. 152), dephostatin (Deph; Cmpd. No. 48), and SU 6656 (SU; Cmpd. No. 126) were screened for selective inhibition of pluripotent stem cell growth in a suspension aggregate type culture, which is amenable to manufacturing scale-up process. Briefly, Human ESCs were aggregated in rotational culture and differentiated through Stages 1-4 to make pancreatic endoderm substantially as described in U.S. patent application Ser. No. 11/838,054, entitled COMPOSITIONS AND METHODS USEFUL FOR CULTURING DIFFERENTIABLE CELLS, filed Aug. 13, 2007; and U.S. patent application Ser. No. 12/264,760, entitled STEM CELL AGGREGATE SUSPENSION COMPOSITIONS AND METHODS OF DIFFERENTIATION THEREOF, filed Nov. 4, 2008, which are herein incorporated by reference in their entirety. RNA samples were collected from control and compound-treated cell cultures at various time points during the differentiation as above, for analysis by Q-PCR. FIGS. 5A-5M show the expression of markers characteristic of pluripotent stem cells or at least one of Stages 1-5. FIGS. 6A-6F show the expression of markers not normally expressed in pluripotent stem cells or Stages 1-5. Each graph includes 5 sections: QPCR samples were normalized to day 0 (hESC), which is the “Control” section farthest left on each graph of FIGS. 5A-5M; the other four sections to the right of the Control section correspond to the four compounds used to treat the cells (chelerythrine chloride (Ch.Cl; Cmpd. No. 25); tyrphostin AG 490 (AG490; Cmpd. No. 152), dephostatin (Deph; Cmpd. No. 48), and SU 6656 (SU6656; Cmpd. No. 126) left to right, respectively).
Compound,ACEA DE [1],"differentiation of non-pancreatic lineage cells, or “off-target” cells ([2]; FIGS. 6A-6F)",PDX1 and NKX6.1 gene expression [2],CDX2 gene expression (non-pancreatic marker) ([2]; FIG. 6F),AFP gene expression (non-pancreatic marker) ([2]; FIG. 6E)
"22, 23-dihydroavermectin B1a+22,23-dihydroavermectin B1b [Ivermectin]",Viable,,,,
CN(N=O)c1cc(O)ccc1O [Dephostatin],,do not promote,increased,,
CN(C)S(=O)(=O)c1ccc2c(c1)/C(=C/c1cc3c([nH]1)CCCC3)C(=O)N2 [SU 6656],Viable,,increased,elevated,
N#C/C(=C\c1ccc(O)c(O)c1)C(=O)NCc1ccccc1 [Tyrphostin AG 490],Viable,,reduced,,elevated

# From US9365830B2, “Agents and methods for inhibiting human pluripotent stem cell growth” (VIACYTE, INC., priority 2010, dated 2016)
